Assay results as given in patent US20230000813A1, “COMPOUND FOR THE TREATMENT OF BOVINE OR SWINE RESPIRATORY DISEASE” (Intervet Inc., priority 2016, published 2023).
Converted amounts (≈) assume the structure as drawn. “And” between values parts separate entries of the source, which are not always exact repeats. Equal entries are not always repeated.

Legend:
M. haemolytica M7/2 = experiment: Mannheimia haemolytica cattle lung infection model, efficacy (Example 9); type: in vivo, cattle calves; settings: for Food consumption, cumulated for all animals in the group: 3 calves, SC 10 mg/kg BW
Procedure: (§1) Unless otherwise described the study was conducted as described in Example 8.
Calves were infected via intratracheal instillation of appr. 300 mL of M. haemolytica PBS suspension containing approximately 4×10^9 CFU M. haemolytica in late log phase on Day 0.
The following clinical findings were recorded: The general behavior scores of the animals before (DO am) and after infection with M. haemolytica in the different treated and control groups are indicated in FIG. 7-1: 0 =normal; 1=slightly depressive, 2=moderately depressive, 3=highly depressive, […] recumbency.
The following pathomorphological findings after section on Day 2 were recorded: After measuring the body weight and the lung weight the Lung body mass ratio was calculated as shown in FIG. 7-2. A healthy animal has a lung body mass ration around 1.7 or lower. The area percentage of lung consolidations compared to the total lung tissue and the lung score determined that is a combined score of such percentage of lung consoldiations and the grade. For the “grade” the degree of lung consolidation score was graded from 0 to 3 for each of eight lung lobes: 0 no visible changes, 1 low graded colour changes or induration, 2 medium graded induration, 3 high graded induration, hepatisation, necrosis.
The geometrical means (CFU/g tissue) of bacteriological re-isolations of Mannheimia haemolytica from lung tissue are illustrated in FIG. 7-4.

[1] = system: 40 isolates of Mannheimia (M.) haemolytica; experiment: MIC50/MIC90, broth-microdilution, European respiratory tract isolates; type: cell-based
Procedure: (§2) The in vitro activity of compounds against 20 isolates of Actinobacillus (A.) pleuropneumoniae, 20 of Bordetella (B.) bronchiseptica, 20 of Histophilus (H.) somni, 40 of Mannheimia (M.) haemolytica and 40 of Pasteurella (P.) multocida collected in different European countries were determined. All bacteria were isolated from the respiratory tract of swine and cattle suffering from respiratory disease. All isolates were epidemiologically unrelated as specified by the different suppliers.
(§3) The minimum inhibitory concentrations (MIC) of compounds according to the invention were determined by the broth-microdilution method according to CLSI document VET01-A4.
(§4) Microdilution trays containing a doubling dilution series of the test compounds were used for the tests.
(§5) The MIC results were interpreted according to the CLSI documents VET01-S3. The lowest concentration of compound at which no visible growth (i.e. no turbidity) detected by the unaided eye was recorded as the MIC.

[2] = system: 20 isolates of Histophilus (H.) somni; experiment: as above; type: cell-based
Procedure: as §2, §3, §4, §5

[3] = system: 40 isolates of Pasteurella (P.) multocida; experiment: as above; type: cell-based
Procedure: as §2, §3, §4, §5

[4] = system: 20 isolates of Actinobacillus (A.) pleuropneumoniae; experiment: as above; type: cell-based
Procedure: as §2, §3, §4, §5

[5] = system: 20 isolates of Bordetella (B.) bronchiseptica; experiment: as above; type: cell-based
Procedure: as §2, §3, §4, §5

[6] = system: Mannheimia haemolytica MH 6374 (ATCC 33396, reference strain); experiment: MIC, broth-microdilution (CLSI VET01-A4); type: cell-based; settings: strain MH 6374
Method in brief: (§6)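 MIC values follow CLSI VET01-S3 interpretation, scored as the lowest concentration free of visible turbidity within a doubling dilution series in microdilution trays.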

[7] = system: Pasteurella multocida PM 6267 (P 2225 (L386), reference strain, mouse infection strain); experiment: MIC, broth-microdilution (CLSI VET01-A4); type: cell-based; settings: strain PM 6267
Method in brief: as §6

[8] = system: Mannheimia haemolytica MH 12587 (1071, BRD field isolate, macrolide-resistance: erm+, E+); experiment: MIC, broth-microdilution (CLSI VET01-A4); type: cell-based; settings: strain MH 12587, macrolide-resistant
Method in brief: as §6

[9] = system: Mannheimia haemolytica MH 6357 (M7/2, reference strain, cattle infection strain); experiment: MIC, broth-microdilution (CLSI VET01-A4); type: cell-based; settings: strain MH 6357
Method in brief: as §6

[10] = system: Pasteurella multocida PM 6391 (ATCC 43137, reference strain); experiment: MIC, broth-microdilution (CLSI VET01-A4); type: cell-based; settings: strain PM 6391
Method in brief: as §6

[11] = system: Pasteurella multocida PM 12080 (IV102277-0093, BRD field isolate); experiment: MIC, broth-microdilution (CLSI VET01-A4); type: cell-based; settings: strain PM 12080
Method in brief: as §6

[12] = system: Mannheimia haemolytica MH 10720 (154, BRD field isolate); experiment: MIC, broth-microdilution (CLSI VET01-A4); type: cell-based; settings: strain MH 10720
Method in brief: as §6

[13] = system: Pasteurella multocida PM 10775 (080130003051, BRD field isolate); experiment: MIC, broth-microdilution (CLSI VET01-A4); type: cell-based; settings: strain PM 10775
Method in brief: as §6

[14] = Plasma and tissue concentrations and pharmacokinetics in infected calves (Example 9); type: in vivo, cattle calves
Procedure: as §1

[15] = system: Acinetobacter baumanii AB 15919 (IV369-2012, dermatitis field isolate); experiment: MIC, broth-microdilution (CLSI VET01-A4); type: cell-based; settings: strain AB 15919
Procedure: (§7) The Minimum inhibitory concentrations (MIC) of compounds according to the invention were determined by the broth-microdilution method according to CLSI document VET01-A4.
(§8) Microdilution trays containing a doubling dilution series of the test compound were used for the tests.
as §5

[16] = system: Mannheimia haemolytica MH 12180 (KLI-02944, BRD field isolate); experiment: MIC, broth-microdilution (CLSI VET01-A4); type: cell-based; settings: strain MH 12180
Procedure: as §7, §8, §5

[17] = system: Acinetobacter baumanii AB 16496 (ATCC 19606, reference strain); experiment: MIC, broth-microdilution (CLSI VET01-A4); type: cell-based; settings: strain AB 16496
Procedure: as §7, §8, §5

[18] = system: Staphylococcus aureus SA 5816 (2139, mastitis field isolate); experiment: MIC, broth-microdilution (CLSI VET01-A4); type: cell-based; settings: strain SA 5816
Procedure: as §7, §8, §5

[19] = system: Staphylococcus aureus SA 6114 (ATCC 29213, reference strain); experiment: MIC, broth-microdilution (CLSI VET01-A4); type: cell-based; settings: strain SA 6114
Procedure: as §7, §8, §5

[20] = system: Pasteurella multocida PM 14426 (0006-439, BRD field isolate, macrolide-resistant); experiment: MIC, broth-microdilution (CLSI VET01-A4); type: cell-based; settings: strain PM 14426, macrolide-resistant
Procedure: as §7, §8, §5

[21] = calves infected with M. haemolytica, SC, single, 10 mg/kg BW, x = number of animals, n = total in group
[22] = SC single 10 mg/kg (C.105, C.189 in 10% Poloxamer 188; C.326 in 30% Captisol), individual animals and mean
[23] = SC single 10 mg/kg (C.105, C.189 in 10% Poloxamer 188; C.326 in 30% Captisol), individual animals and mean, 10 mg/kg
[24] = plasma, SC 10 mg/kg, mean, Phoenix WinNonlin

COCCNCc1ccc(C#Cc2ccc(C(=O)N[C@H](C(=O)NO)[C@@H](C)O)cc2)s1 [C. 189]
Food consumption, cumulated for all animals in the group (M. haemolytica M7/2; D 0 am, after infection and treatment): 4800 g | Food consumption, cumulated for all animals in the group (M. haemolytica M7/2; D 0 pm): 4800 g | Food consumption, cumulated for all animals in the group (M. haemolytica M7/2; D +1 am): 4800 g | Food consumption, cumulated for all animals in the group (M. haemolytica M7/2; D +1 pm): 4800 g | Food consumption, cumulated for all animals in the group (M. haemolytica M7/2; D −1 (before infection)): 4800 g | Bacteriological Cure (x of n) (M. haemolytica M7/2; [21]): 1/3 | Survival (x of n) (M. haemolytica M7/2; [21]): 3/3 | efficacy against an artificial lung infection with M. haemolytica M7/2 in the calf (M. haemolytica M7/2; tested dosage of 10 mg/kg, conclusion in words): effective | MIC50 [1]: 0.25 µg/mL (≈ 0.579 µM) | MIC90 [1]: 0.5 µg/mL (≈ 1.16 µM) | MIC50 [2]: 0.032 µg/mL (≈ 0.0742 µM) | MIC90 [2]: 0.063 µg/mL (≈ 0.146 µM) | MIC50 [3]: 0.032 µg/mL (≈ 0.0742 µM) | MIC90 [3]: 0.063 µg/mL (≈ 0.146 µM) | MIC50 [4]: 0.25 µg/mL (≈ 0.579 µM) | MIC90 [4]: 0.25 µg/mL (≈ 0.579 µM) | MIC50 [5]: >16 µg/mL | MIC90 [5]: >16 µg/mL | MIC [6]: 0.25 µg/mL (≈ 0.579 µM) | MIC [7]: 0.5 µg/mL (≈ 1.16 µM) | MIC [8]: 1 µg/mL (≈ 2.32 µM) | MIC [9]: 0.5 µg/mL (≈ 1.16 µM) | MIC [10]: 0.25 µg/mL (≈ 0.579 µM) | MIC [11]: 0.063 µg/mL (≈ 0.146 µM) | MIC [12]: 0.125 µg/mL (≈ 0.29 µM) | MIC [13]: ≤0.016 µg/mL | Concentration, Plasma 48 h [14, 22]: BLQ | Concentration, Tissue (48 h) ELF [14, 22]: BLQ | Concentration, Tissue (48 h) Liver [14, 22]: 22.5 ng/mL | Concentration, Tissue (48 h) Lung [14, 22]: BLQ | Concentration, Tissue (48 h) Muscle [14, 22]: BLQ | Concentration, Plasma 0.5 h [14, 23]: 916 ng/mL and 892 ng/mL and 1350 ng/mL | Concentration, Plasma 2 h [14, 23]: 465 ng/mL and 663 ng/mL and 788 ng/mL | Concentration, Plasma 4 h [14, 23]: 433 ng/mL and 300 ng/mL and 430 ng/mL | Concentration, Plasma 6 h [14, 23]: 339 ng/mL and 293 ng/mL and 289 ng/mL | Concentration, Plasma 24 h [14, 23]: 31.3 ng/mL and 20.3 ng/mL and 21.8 ng/mL | Concentration, Tissue (48 h) Kidney [14, 23]: BLQ (2×) and 25.1 ng/mL | Concentration, Tissue (48 h) Liver [14, 23]: BLQ | AUClast [14, 24]: 6236 ng·h/mL | CI_F_obs [14, 24]: 26.08 mL/min/kg | Cmax [14, 24]: 1053 ng/mL | HL_Lambda_z (Half life time) [14, 24]: 4.98 h | MRTlast (Mean retention time till last measured value) [14, 24]: 4.75 h | Tmax [14, 24]: 0.5 h | Vz_F_obs [14, 24]: 11.2 L/kg | Concentration, Plasma 0 h ([14]; predose, SC single 10 mg/kg (C.105, C.189 in 10% Poloxamer 188; C.326 in 30% Captisol), individual animals and mean): BLQ | MIC [15]: >16 µg/mL | MIC [16]: 0.25 µg/mL (≈ 0.579 µM) | MIC [17]: >16 µg/mL | MIC [18]: >16 µg/mL | MIC [19]: >16 µg/mL | MIC [20]: 0.032 µg/mL (≈ 0.0742 µM)
